Earlier results as cited in article PMC6544338, “Comparative biophysical characterization: A screening tool for acetylcholinesterase inhibitors” (PLoS ONE, 2019).

System: AChE
Conditions: cited from earlier work

Row | SMILES | IC50 (literature value, no reference printed behind it, read-out: IC50) | concentration showing maximum inhibition of AChE
1 | O=C(O[C@@H]1Cc2c(O)cc(O)cc2O[C@@H]1c1cc(O)c(O)c(O)c1)c1cc(O)c(O)c(O)c1 [epigallocatechin gallate] | 16.8 µM | 
2 | CC1=C(C=O)C(C)(C)CC=C1 [safranal] |  | 21.09 ± 0.17 µM
